Measured values taken from the supplement of paper PMC10307832.

What was measured:
Pazopanib = compound: Cc1ccc(Nc2nccc(N(C)c3ccc4c(C)n(C)nc4c3)n2)cc1S(N)(=O)=O [Pazopanib]; experiment: relative viability (nuclei count vs DMSO), 5 days (fraction); higher = more cells survive
In short: (§1)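 Lung cancer cell lines were seeded into 1536-well plates, kept overnight at 37 °C and pinned with five library-drug doses (not always all listed) spaced by √10. After 5 days, nuclei were Hoechst-stained, imaged at 4× and counted with MetaXpress. Viability is treated-well nuclei over vehicle-well nuclei, taken as a median across plates. Plates needed control CV below 25% and at least one doubling.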

Ponatinib = compound: Cc1ccc(C(=O)Nc2ccc(CN3CCN(C)CC3)c(C(F)(F)F)c2)cc1C#Cc1cnc2cccnn12 [Ponatinib]; experiment: as above
In short: as §1

Cell Line | relative viability (Pazopanib; 0.01 µM) | relative viability (Pazopanib; 0.03162 µM) | relative viability (Pazopanib; 0.1 µM) | relative viability (Pazopanib; 0.3162 µM) | relative viability (Pazopanib; 1 µM) | relative viability (Ponatinib; 0.002 µM) | relative viability (Ponatinib; 0.006325 µM) | relative viability (Ponatinib; 0.06325 µM) | relative viability (Ponatinib; 0.2 µM)
RERF-LC-KJ | 1.11 | 1.03 | 0.984 | 0.919 | 0.969 | 0.926 | 1.01 | 1.05 | 0.965
SK-LU-1 | 0.939 | 1.09 | 1.08 | 1.05 | 1.08 | 0.943 | 1 | 1.07 | 0.928
SK-MES-1 | 0.946 | 0.987 | 1.04 | 1.05 | 1.05 | 0.944 | 1.06 | 1.15 | 1
SW 900 | 0.796 | 0.902 | 0.762 | 1.12 | 1.2 | 0.817 | 0.783 | 0.889 | 0.794
SW 1573 | 0.948 | 1.02 | 1.07 | 1.2 | 1.13 | 0.961 | 0.955 | 1.06 | 0.897
